Measured values reported in ChEMBL document CHEMBL1143809, “New bis-N9-(methylphenylmethyl)purine derivatives: synthesis and antitumor activity” (2007).

How the values were obtained:
Assay type in all cases: functional
[1] = system: NCI-H460; experiment: Anticancer activity against human NCL-H460 cells assessed as growth at 100 uM after 48 hrs by SRB protein assay relative to control; conditions: NCI-H460, 48 h, read-out: Activity
[2] = system: MCF7; experiment: Anticancer activity against human MCF7 cells assessed as growth at 100 uM after 48 hrs by SRB protein assay relative to control; conditions: MCF7, 48 h, read-out: Activity
[3] = system: SF-268; experiment: Anticancer activity against human SF268 cells assessed as growth at 100 uM after 48 hrs by SRB protein assay relative to control; conditions: SF-268, 48 h, read-out: Activity

Clc1ncnc2c1ncn2Cc1ccccc1Cn1cnc2c(Cl)ncnc21 was tested, and the growth at 100 µM [1] was 58%, the growth at 100 µM [2] was 78% and the growth at 100 µM [3] was 78%.
In the case of Clc1ncnc2c1ncn2Cc1cccc(Cn2cnc3c(Cl)ncnc32)c1, the growth at 100 µM [1] was 65%, the growth at 100 µM [2] was 77% and the growth at 100 µM [3] was 90%.
For Nc1ncnc2c1ncn2Cc1cccc(Cn2cnc3c(N)ncnc32)c1, the growth at 100 µM [1] was 96%, the growth at 100 µM [2] was 109% and the growth at 100 µM [3] was 108%.
Work on Clc1ncnc2c1ncn2Cc1ccc(Cn2cnc3c(Cl)ncnc32)cc1 yielded a growth at 100 µM [1] of 95%, a growth at 100 µM [2] of 101% and a growth at 100 µM [3] of 86%.
In the case of Nc1ncnc2c1ncn2Cc1ccc(Cn2cnc3c(N)ncnc32)cc1, the growth at 100 µM [1] was 111%, the growth at 100 µM [2] was 112% and the growth at 100 µM [3] was 96%.
Clc1ncnc2c1ncn2Cc1ccc(-c2ccc(Cn3cnc4c(Cl)ncnc43)cc2)cc1 was tested, and the growth at 100 µM [1] was 45%, the growth at 100 µM [2] was 67% and the growth at 100 µM [3] was 95%.
Nc1ncnc2c1ncn2Cc1ccc(-c2ccc(Cn3cnc4c(N)ncnc43)cc2)cc1 gave a growth at 100 µM [1] of 98%, a growth at 100 µM [2] of 86% and a growth at 100 µM [3] of 50%.
Nc1ncnc2c1ncn2Cc1ccccc1Cn1cnc2c(N)ncnc21 gave a growth at 100 µM [1] of 84%, a growth at 100 µM [2] of 99% and a growth at 100 µM [3] of 99%.
